Test results taken from patent publication US12077503B2, “Substituted cyclic amides and their use as herbicides” (FMC CORPORATION, priority 2015, dated 2024).

Tests used:
Assay type in all cases: in vivo
[1] = tested on: barnyardgrass (Echinochloa crus-galli); assay: Test G Pre-Emergence Protocol; details: Echinochloa crus-galli, pre-emergence, 312 h, evaluated after 13 days; for pest or weed control at 15.625 g/ha: 15.625 g ai/ha, read-out: Barnyard grass damage rating (100=total damage to plant; 0=no damage to plant); for pest or weed control at 62.5 g/ha: 62.5 g ai/ha, 100=total damage to plant, 0=no damage to plant, read-out: plant damage rating, Barnyardgrass; for pest or weed control at 250 g/ha: 250 g ai/ha, read-out: Barnyardgrass damage rating (100=total damage to plant; 0=no damage to plant)
Summary of the method: (§1)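 Scores are visual damage ratings from 0 (no damage) to 100 (total plant kill), taken 13 days after treatment. Compound was sprayed one day post-sowing at 15.625, 62.5 or 250 g/ha in 50:50 acetone/water with 0.5% Tween 20.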

corn (Zea mays) [2] = assay: Test G Pre-Emergence Protocol; details: Zea mays, pre-emergence, 312 h, evaluated after 13 days; for plant injury at 15.625 g/ha: 15.625 g ai/ha; for plant injury at 15.625 g/ha / plant injury at 250 g/ha: read-out: Corn damage rating (100=total damage to plant; 0=no damage to plant); for plant injury at 62.5 g/ha: 62.5 g ai/ha, 100=total damage to plant, 0=no damage to plant, read-out: plant damage rating, Corn; for plant injury at 250 g/ha: 250 g ai/ha
Summary of the method: as §1

[3] = tested on: giant foxtail (Setaria faberi); assay: Test G Pre-Emergence Protocol; details: Setaria faberi, pre-emergence, 312 h, evaluated after 13 days; for pest or weed control at 15.625 g/ha: 15.625 g ai/ha; for pest or weed control at 15.625 g/ha / pest or weed control at 250 g/ha: read-out: Foxtail, Giant damage rating (100=total damage to plant; 0=no damage to plant); for pest or weed control at 62.5 g/ha: 62.5 g ai/ha, 100=total damage to plant, 0=no damage to plant, read-out: plant damage rating, Foxtail, Giant; for pest or weed control at 250 g/ha: 250 g ai/ha
Summary of the method: as §1

[4] = tested on: ivy-leaved morning glory (Ipomoea hederacea); assay: Test G Pre-Emergence Protocol; details: Ipomoea, pre-emergence, 312 h, evaluated after 13 days; for pest or weed control at 15.625 g/ha: 15.625 g ai/ha, read-out: Morning-glory, Ivy-leaved damage rating (100=total damage to plant; 0=no damage to plant); for pest or weed control at 62.5 g/ha: 62.5 g ai/ha, 100=total damage to plant, 0=no damage to plant, read-out: plant damage rating, Morningglory, Ivy-leaved; for pest or weed control at 250 g/ha: 250 g ai/ha, read-out: Morningglory, Ivy-leaved damage rating (100=total damage to plant; 0=no damage to plant)
Summary of the method: as §1

[5] = tested on: redroot pigweed (Amaranthus retroflexus); assay: Test G Pre-Emergence Protocol; details: Amaranthus retroflexus, pre-emergence, 312 h, evaluated after 13 days; for pest or weed control at 15.625 g/ha: 15.625 g ai/ha; for pest or weed control at 15.625 g/ha / pest or weed control at 250 g/ha: read-out: Pigweed, Redroot damage rating (100=total damage to plant; 0=no damage to plant); for pest or weed control at 62.5 g/ha: 62.5 g ai/ha, 100=total damage to plant, 0=no damage to plant, read-out: plant damage rating, Pigweed, Redroot; for pest or weed control at 250 g/ha: 250 g ai/ha
Summary of the method: as §1

[6] = tested on: velvetleaf (Abutilon theophrasti); assay: Test G Pre-Emergence Protocol; details: Abutilon theophrasti, pre-emergence, 312 h, evaluated after 13 days; for pest or weed control at 15.625 g/ha: 15.625 g ai/ha; for pest or weed control at 15.625 g/ha / pest or weed control at 250 g/ha: read-out: Velvetleaf damage rating (100=total damage to plant; 0=no damage to plant); for pest or weed control at 62.5 g/ha: 62.5 g ai/ha, 100=total damage to plant, 0=no damage to plant, read-out: plant damage rating, Velvetleaf; for pest or weed control at 250 g/ha: 250 g ai/ha
Summary of the method: as §1

[7] = tested on: barnyardgrass (Echinochloa crus-galli); assay: Test G Post-Emergence Protocol; details: Echinochloa crus-galli, post-emergence, 312 h; for pest or weed control at 15.625 g/ha: 15.625 g ai/ha, evaluated after 13 days (100=total damage to plant; 0=no damage to plant), read-out: Barnyardgrass damage rating; for pest or weed control at 62.5 g/ha: 62.5 g ai/ha, read-out: Barnyardgrass damage rating (100=total damage to plant; 0=no damage to plant); for pest or weed control at 62.5 g/ha / pest or weed control at 250 g/ha: evaluated after 13 days; for pest or weed control at 250 g/ha: 250 g ai/ha, read-out: damage to plant, Barnyardgrass (100=total damage to plant; 0=no damage to plant)
Summary of the method: (§2)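 Scores run 0 (no damage) to 100 (total damage) and were taken 13 days after spraying. Plants had been raised in pots for 8 days under glasshouse control (24/16 °C, 14 h photoperiod, 65% humidity) and then treated at 15.625, 62.5 or 250 g/ha.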

corn (Zea mays) [8] = assay: Test G Post-Emergence Protocol; details: Zea mays, post-emergence, 312 h; for plant injury at 15.625 g/ha: 15.625 g ai/ha, evaluated after 13 days (100=total damage to plant; 0=no damage to plant), read-out: Corn damage rating; for plant injury at 62.5 g/ha: 62.5 g ai/ha, read-out: Corn damage rating (100=total damage to plant; 0=no damage to plant); for plant injury at 62.5 g/ha / plant injury at 250 g/ha: evaluated after 13 days; for plant injury at 250 g/ha: 250 g ai/ha, read-out: damage to plant, Corn (100=total damage to plant; 0=no damage to plant)
Summary of the method: as §2

[9] = tested on: giant foxtail (Setaria faberi); assay: Test G Post-Emergence Protocol; details: Setaria faberi, post-emergence, 312 h; for pest or weed control at 15.625 g/ha: 15.625 g ai/ha, evaluated after 13 days (100=total damage to plant; 0=no damage to plant), read-out: Foxtail, Giant damage rating; for pest or weed control at 62.5 g/ha: 62.5 g ai/ha, read-out: Foxtail, Giant damage rating (100=total damage to plant; 0=no damage to plant); for pest or weed control at 62.5 g/ha / pest or weed control at 250 g/ha: evaluated after 13 days; for pest or weed control at 250 g/ha: 250 g ai/ha, read-out: damage to plant, Foxtail, Giant (100=total damage to plant; 0=no damage to plant)
Summary of the method: as §2

[10] = tested on: ivy-leaved morning glory (Ipomoea hederacea); assay: Test G Post-Emergence Protocol; details: Ipomoea, post-emergence, 312 h; for pest or weed control at 15.625 g/ha: 15.625 g ai/ha, evaluated after 13 days (100=total damage to plant; 0=no damage to plant), read-out: Morningglory, Ivy-leaved damage rating; for pest or weed control at 62.5 g/ha: 62.5 g ai/ha, read-out: Morningglory, Ivy-leaved damage rating (100=total damage to plant; 0=no damage to plant); for pest or weed control at 62.5 g/ha / pest or weed control at 250 g/ha: evaluated after 13 days; for pest or weed control at 250 g/ha: 250 g ai/ha, read-out: damage to plant, Morningglory, Ivy-leaved (100=total damage to plant; 0=no damage to plant)
Summary of the method: as §2

[11] = tested on: redroot pigweed (Amaranthus retroflexus); assay: Test G Post-Emergence Protocol; details: Amaranthus retroflexus, post-emergence, 312 h; for pest or weed control at 15.625 g/ha: 15.625 g ai/ha, evaluated after 13 days (100=total damage to plant; 0=no damage to plant), read-out: Pigweed, Redroot damage rating; for pest or weed control at 62.5 g/ha: 62.5 g ai/ha, read-out: Pigweed, Redroot damage rating (100=total damage to plant; 0=no damage to plant); for pest or weed control at 62.5 g/ha / pest or weed control at 250 g/ha: evaluated after 13 days; for pest or weed control at 250 g/ha: 250 g ai/ha, read-out: damage to plant, Pigweed, Redroot (100=total damage to plant; 0=no damage to plant)
Summary of the method: as §2

[12] = tested on: velvetleaf (Abutilon theophrasti); assay: Test G Post-Emergence Protocol; details: Abutilon theophrasti, post-emergence, 312 h; for pest or weed control at 15.625 g/ha: 15.625 g ai/ha, evaluated after 13 days (100=total damage to plant; 0=no damage to plant), read-out: Velvetleaf damage rating; for pest or weed control at 62.5 g/ha: 62.5 g ai/ha, read-out: Velvetleaf damage rating (100=total damage to plant; 0=no damage to plant); for pest or weed control at 62.5 g/ha / pest or weed control at 250 g/ha: evaluated after 13 days; for pest or weed control at 250 g/ha: 250 g ai/ha, read-out: damage to plant, Velvetleaf (100=total damage to plant; 0=no damage to plant)
Summary of the method: as §2

For CN1C[C@@H](c2ccc(C(F)(F)F)cc2)[C@H](C(=O)Nc2nnc(C(F)(F)F)[nH]2)C1=O (racemic) [Compound 1550], the pest or weed control at 15.625 g/ha [1] was 0%, the pest or weed control at 62.5 g/ha [1] was 0% and the pest or weed control at 250 g/ha [1] was 0%. The plant injury at 15.625 g/ha (corn (Zea mays) [2]) was 0%, the plant injury at 62.5 g/ha (corn (Zea mays) [2]) was 0% and the plant injury at 250 g/ha (corn (Zea mays) [2]) was 0%. For the same compound, the pest or weed control at 15.625 g/ha [3] was 0%, the pest or weed control at 62.5 g/ha [3] was 0% and the pest or weed control at 250 g/ha [3] was 0%. The pest or weed control at 15.625 g/ha [4] was 0%, the pest or weed control at 62.5 g/ha [4] was 0% and the pest or weed control at 250 g/ha [4] was 0%. For the same compound, the pest or weed control at 15.625 g/ha [5] was 0%, the pest or weed control at 62.5 g/ha [5] was 0% and the pest or weed control at 250 g/ha [5] was 0%. The pest or weed control at 15.625 g/ha [6] was 0%, the pest or weed control at 62.5 g/ha [6] was 0% and the pest or weed control at 250 g/ha [6] was 0%. The pest or weed control at 15.625 g/ha [7] was 0%, the pest or weed control at 62.5 g/ha [7] was 0% and the pest or weed control at 250 g/ha [7] was 0%. It also gave a plant injury at 15.625 g/ha (corn (Zea mays) [8]) of 0%, a plant injury at 62.5 g/ha (corn (Zea mays) [8]) of 10% and a plant injury at 250 g/ha (corn (Zea mays) [8]) of 30%. For the same compound, the pest or weed control at 15.625 g/ha [9] was 0%, the pest or weed control at 62.5 g/ha [9] was 0% and the pest or weed control at 250 g/ha [9] was 0%. The pest or weed control at 15.625 g/ha [10] was 0%, the pest or weed control at 62.5 g/ha [10] was 0% and the pest or weed control at 250 g/ha [10] was 0%. The pest or weed control at 15.625 g/ha [11] was 0%, the pest or weed control at 62.5 g/ha [11] was 30% and the pest or weed control at 250 g/ha [11] was 40%. For the same compound, the pest or weed control at 15.625 g/ha [12] was 0%, the pest or weed control at 62.5 g/ha [12] was 0% and the pest or weed control at 250 g/ha [12] was 0%.

CN1C[C@@H](c2cncc(Cl)c2)[C@H](C(=O)Nc2cccc(F)c2F)C1=O (racemic) [Compound 1461] showed a pest or weed control at 15.625 g/ha [1] of 0%, a pest or weed control at 62.5 g/ha [1] of 60% and a pest or weed control at 250 g/ha [1] of 90%. The plant injury at 15.625 g/ha (corn (Zea mays) [2]) was 0%, the plant injury at 62.5 g/ha (corn (Zea mays) [2]) was 0% and the plant injury at 250 g/ha (corn (Zea mays) [2]) was 0%. The pest or weed control at 15.625 g/ha [3] was 30%, the pest or weed control at 62.5 g/ha [3] was 80% and the pest or weed control at 250 g/ha [3] was 90%. For the same compound, the pest or weed control at 15.625 g/ha [4] was 0%, the pest or weed control at 62.5 g/ha [4] was 0% and the pest or weed control at 250 g/ha [4] was 0%. It also gave a pest or weed control at 15.625 g/ha [5] of 0%, a pest or weed control at 62.5 g/ha [5] of 0% and a pest or weed control at 250 g/ha [5] of 0%. It also gave a pest or weed control at 15.625 g/ha [6] of 0%, a pest or weed control at 62.5 g/ha [6] of 0% and a pest or weed control at 250 g/ha [6] of 0%. The pest or weed control at 15.625 g/ha [7] was 0%, the pest or weed control at 62.5 g/ha [7] was 30% and the pest or weed control at 250 g/ha [7] was 50%. The plant injury at 15.625 g/ha (corn (Zea mays) [8]) was 10%, the plant injury at 62.5 g/ha (corn (Zea mays) [8]) was 0% and the plant injury at 250 g/ha (corn (Zea mays) [8]) was 0%. It also gave a pest or weed control at 15.625 g/ha [9] of 20%, a pest or weed control at 62.5 g/ha [9] of 70% and a pest or weed control at 250 g/ha [9] of 70%. It also gave a pest or weed control at 15.625 g/ha [10] of 0%, a pest or weed control at 62.5 g/ha [10] of 0% and a pest or weed control at 250 g/ha [10] of 0%. The pest or weed control at 15.625 g/ha [11] was 0%, the pest or weed control at 62.5 g/ha [11] was 0% and the pest or weed control at 250 g/ha [11] was 0%. For the same compound, the pest or weed control at 15.625 g/ha [12] was 0%, the pest or weed control at 62.5 g/ha [12] was 0% and the pest or weed control at 250 g/ha [12] was 0%.
